Test system: panel of 484 cancer cell lines
Assay: PRISM cancer cell line profiling, 5 days
Assay type: cell-based
Set-up: AUC: unit not given beside the values
Protocol: Cancer cell line profiling was performed using the Broad’s PRISM platform. Cell treatment and data analysis were performed as described in Yu et al[42]. Raw Luminex signal was converted to AUC values for each cell line as described. The resulting AUC profile for each compound was modeled against DepMap using the limma package in R[71]. Because hotspot mutation analysis was performed against DepMap, TP53 annotations in Fig. 6c,d are directly from DepMap.

For CN1CCN(CCC(=O)Nc2ccc3c(=O)n(CC4(O)CCN(C(=O)[C@H](CCCNC(=O)c5ccc6c(Cl)c7c(nc6c5)CCCC7)Cc5ccccc5)CC4)cnc3c2)CC1 [XL177B], the AUC (HCC1438_LUNG) was 0.9398, the AUC (HCC1588_LUNG) was 1.124 and the AUC (HCC1806_BREAST) was 1.262. For the same compound, the AUC (HCC1937_BREAST) was 0.9651, the AUC (HCC4006_LUNG) was 1.102 and the AUC (HCT15_LARGE_INTESTINE) was 1.193. The AUC (HCT116_LARGE_INTESTINE) was 1.02, the AUC (HDQP1_BREAST) was 0.9999 and the AUC (HEC1A_ENDOMETRIUM) was 1.104. For the same compound, the AUC (HEC1B_ENDOMETRIUM) was 1.096, the AUC (HEC6_ENDOMETRIUM) was 1.02 and the AUC (HEC59_ENDOMETRIUM) was 1.13. It also gave an AUC (HEC108_ENDOMETRIUM) of 0.935, an AUC (HEC151_ENDOMETRIUM) of 0.9419 and an AUC (HEC251_ENDOMETRIUM) of 0.8279. The AUC (HEC265_ENDOMETRIUM) was 0.8825, the AUC (HEP3B217_LIVER) was 1.23 and the AUC (HEYA8_OVARY) was 1.2. For the same compound, the AUC (HGC27_STOMACH) was 1.226, the AUC (HLF_LIVER) was 0.794 and the AUC (HMC18_BREAST) was 1.228. For the same compound, the AUC (HOS_BONE) was 1.145, the AUC (HPAC_PANCREAS) was 1.288 and the AUC (HS294T_SKIN) was 1.038. It also gave an AUC (HS618T_LUNG) of 1.097, an AUC (HS729_SOFT_TISSUE) of 1.1211 and an AUC (HS766T_PANCREAS) of 1.2108. It also gave an AUC (HS852T_SKIN) of 1.089, an AUC (HS939T_SKIN) of 1.116 and an AUC (HS944T_SKIN) of 1.026. The AUC (HSC2_UPPER_AERODIGESTIVE_TRACT) was 1.102, the AUC (HSC3_UPPER_AERODIGESTIVE_TRACT) was 1.094 and the AUC (HT29_LARGE_INTESTINE) was 1.23. For the same compound, the AUC (HT55_LARGE_INTESTINE) was 1.212, the AUC (HT144_SKIN) was 1.106 and the AUC (HT1080_SOFT_TISSUE) was 0.9733. For the same compound, the AUC (HT1376_URINARY_TRACT) was 0.9173, the AUC (HUCCT1_BILIARY_TRACT) was 1.078 and the AUC (HUH6_LIVER) was 0.9719. For the same compound, the AUC (HUH7_LIVER) was 1.132, the AUC (HUH28_BILIARY_TRACT) was 1.093 and the AUC (HUPT3_PANCREAS) was 1.102. For the same compound, the AUC (IALM_LUNG) was 1.165, the AUC (IGR1_SKIN) was 1.13 and the AUC (IGR37_SKIN) was 1.06. For the same compound, the AUC (IGROV1_OVARY) was 0.9036, the AUC (IM95_STOMACH) was 0.9524 and the AUC (IPC298_SKIN) was 1.071. It also gave an AUC (ISHIKAWAHERAKLIO02ER_ENDOMETRIUM) of 1.087, an AUC (ISTMES1_PLEURA) of 0.902 and an AUC (ISTMES2_PLEURA) of 1.138. It also gave an AUC (J82_URINARY_TRACT) of 1.062, an AUC (JHH1_LIVER) of 0.9889 and an AUC (JHH4_LIVER) of 0.8541. The AUC (JHH5_LIVER) was 1.201, the AUC (JHH6_LIVER) was 1.182 and the AUC (JHH7_LIVER) was 1.125. For the same compound, the AUC (JHOC5_OVARY) was 1.064, the AUC (JHOM1_OVARY) was 1.08 and the AUC (JHOS2_OVARY) was 1.281. For the same compound, the AUC (JHUEM2_ENDOMETRIUM) was 0.8483, the AUC (JIMT1_BREAST) was 0.9922 and the AUC (JMSU1_URINARY_TRACT) was 1.004. For the same compound, the AUC (K029AX_SKIN) was 1.1273, the AUC (KALS1_CENTRAL_NERVOUS_SYSTEM) was 1.102 and the AUC (KELLY_AUTONOMIC_GANGLIA) was 1.134. The AUC (KMBC2_URINARY_TRACT) was 0.9911, the AUC (KMRC1_KIDNEY) was 1.146 and the AUC (KMRC3_KIDNEY) was 1.058. It also gave an AUC (KMRC20_KIDNEY) of 1.146, an AUC (KNS42_CENTRAL_NERVOUS_SYSTEM) of 1.1 and an AUC (KNS60_CENTRAL_NERVOUS_SYSTEM) of 1.09. The AUC (KNS62_LUNG) was 1.118, the AUC (KNS81_CENTRAL_NERVOUS_SYSTEM) was 1.075 and the AUC (KP2_PANCREAS) was 0.9926. For the same compound, the AUC (KP3_PANCREAS) was 1.089, the AUC (KP4_PANCREAS) was 0.9662 and the AUC (KPL1_BREAST) was 1.217. For the same compound, the AUC (KU1919_URINARY_TRACT) was 0.9667, the AUC (KYSE30_OESOPHAGUS) was 1.063 and the AUC (KYSE70_OESOPHAGUS) was 1.0546. It also gave an AUC (KYSE140_OESOPHAGUS) of 1.1657, an AUC (KYSE150_OESOPHAGUS) of 1.101 and an AUC (KYSE180_OESOPHAGUS) of 1.135. It also gave an AUC (KYSE270_OESOPHAGUS) of 1.03, an AUC (KYSE410_OESOPHAGUS) of 1.091 and an AUC (KYSE510_OESOPHAGUS) of 1.034. The AUC (KYSE520_OESOPHAGUS) was 1.133, the AUC (L33_PANCREAS) was 1.426 and the AUC (LC1SQSF_LUNG) was 1.115. It also gave an AUC (LCLC103H_LUNG) of 1.231, an AUC (LI7_LIVER) of 0.9601 and an AUC (LK2_LUNG) of 1.126. It also gave an AUC (LMSU_STOMACH) of 1.053, an AUC (LN18_CENTRAL_NERVOUS_SYSTEM) of 1.129 and an AUC (LN229_CENTRAL_NERVOUS_SYSTEM) of 1.034. For the same compound, the AUC (LNCAPCLONEFGC_PROSTATE) was 0.9173, the AUC (LOUNH91_LUNG) was 1.097 and the AUC (LOVO_LARGE_INTESTINE) was 1.325. For the same compound, the AUC (LOXIMVI_SKIN) was 1.09, the AUC (LS180_LARGE_INTESTINE) was 1.075 and the AUC (LS411N_LARGE_INTESTINE) was 1.3262. The AUC (LS513_LARGE_INTESTINE) was 1.3335, the AUC (LS1034_LARGE_INTESTINE) was 1.506 and the AUC (LU99_LUNG) was 0.9959. For the same compound, the AUC (LUDLU1_LUNG) was 0.9789, the AUC (LXF289_LUNG) was 1.119 and the AUC (MALME3M_SKIN) was 0.9879. It also gave an AUC (MCAS_OVARY) of 1.03, an AUC (MCF7_BREAST) of 1.188 and an AUC (MDAMB175VII_BREAST) of 1.1488. It also gave an AUC (MDAMB231_BREAST) of 1.063, an AUC (MDAMB435S_SKIN) of 1.117 and an AUC (MDAMB436_BREAST) of 1.147. The AUC (MDAMB468_BREAST) was 1.0692, the AUC (MELHO_SKIN) was 1.016 and the AUC (MELJUSO_SKIN) was 1.072. It also gave an AUC (MESSA_SOFT_TISSUE) of 0.9027, an AUC (MEWO_SKIN) of 1.126 and an AUC (MFE280_ENDOMETRIUM) of 1.168. For the same compound, the AUC (MFE296_ENDOMETRIUM) was 1.031.

From article PMC7093416, “Selective USP7 inhibition elicits cancer cell killing through a p53-dependent mechanism” (Scientific Reports, 2020)
